Measurements reported in patent US5672707A (priority 1991, dated 1997).
Like-named read-outs stand apart in the source and are kept apart here.

Legend:
in vivo = details: for LD50: in vivo, ip
Description: (§1) Psychoneurotropic activity of the declared compounds and their influence on learning and memory were observed using unbred male (18-20 g) mice and 180-200 g) rats, held at standard conditions (room temperature 21°-22° C., 12-hours lighting schedule, food and water ad libitum).
Acute toxicity was studied by the method of Kerber with intra peritoneal drug injection.

[1] = biological target: T1, Acetylcholinesterase, enzyme from human erythrocytes (Homo sapiens, UniProt P22303); assay: Acetylcholinesterase inhibition, spectrophotometric technique of Ellman; type: biochemical; details: Acetylcholinesterase inhibition IC50 (M), enzyme from human erythrocytes; Table 5
T1 construct: on the enzyme from human erythrocytes; from tissue; host or cells: human erythrocytes
T1 sequence (P22303-2 with tags, fused parts or gaps limits assumed): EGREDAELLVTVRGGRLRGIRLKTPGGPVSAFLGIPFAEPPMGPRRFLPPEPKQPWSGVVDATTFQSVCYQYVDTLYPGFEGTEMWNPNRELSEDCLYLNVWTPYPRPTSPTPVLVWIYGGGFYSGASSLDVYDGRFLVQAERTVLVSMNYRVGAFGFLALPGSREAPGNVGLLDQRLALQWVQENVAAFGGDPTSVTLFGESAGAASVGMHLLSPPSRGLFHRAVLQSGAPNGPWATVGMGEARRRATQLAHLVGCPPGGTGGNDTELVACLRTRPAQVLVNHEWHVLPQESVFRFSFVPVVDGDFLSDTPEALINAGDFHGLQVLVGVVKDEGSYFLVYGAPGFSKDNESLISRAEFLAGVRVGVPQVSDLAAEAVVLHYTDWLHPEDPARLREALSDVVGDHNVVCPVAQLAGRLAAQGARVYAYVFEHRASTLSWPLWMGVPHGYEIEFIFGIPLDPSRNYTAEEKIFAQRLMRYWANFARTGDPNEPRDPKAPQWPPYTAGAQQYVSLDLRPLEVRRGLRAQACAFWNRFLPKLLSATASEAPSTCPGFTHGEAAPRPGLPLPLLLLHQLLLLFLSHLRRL
Description: Acetylcholinesterase inhibition under the action of preparations was assessed by the spectrophotometric technique of Ellman on the enzyme from human erythrocytes.

mice [2] = assay: Psychotropic activity test: motor activity; type: in vivo; details: intraperitoneally, dose 1/20 of LD
mice [3] = assay: Psychotropic activity test: arecoline induced hyperkynesis; type: in vivo; details: intraperitoneally, dose 1/20 of LD
rats = assay: Passive avoidance test in normal rats, 50% acquisition; type: in vivo; details: for change in vivo at 0.1 mg/kg: Rattus norvegicus, ip, 20 min, read-out: Increase of the number of correct trails (% to control). Passive avoidance test (rats); for change in vivo at 0.1 mg/kg / Increase of the number of correct trails (% to control). Passive avoidance test (rats): rats, 0.1 mg/kg i.p. 20 min before training, piracetam 250 mg/kg 60 min before training
Description: as §1
The influence of drugs on reflex conditioning in rats was studied by the passive avoidance test in conditions of 50% acquisition. The effect of the compound was estimated by the increase of the relative number of learned animals with respect to that of control group. […] The other reference drug--noothropic agent piracetam--was given in the dose 250 mg/kg 60 min before training. Amnestic syndrome was stimulated by 20 days application of Sc at the daily dose of 1 mg/kg intraperitoneally. […] The passive avoidance test was performed within 24 hours after the last application of test preparations.

rat adipocytes = assay: Lipid composition of adipocytes after incubation with compounds; type: cell-based; details: cells; Table 11
Description: Lipid regulative activity of the declared compounds--derivatives of 9-amino acridine--were evaluated in vitro[…] using rat adipocytes. Adipocytes were separated from adipose tissue of testis appendages of adult male rats. Lipid composition analysis was performed by the method of thin-layer chromatography.
Quantitative analysis of phospholipids (PL), mono- and diacylglycerides (MDG), triacylglycerides (TG), free fatty acids (FFA), free cholesterol (FCL), and methyl esters of fatty acids (MEFA) was performed by the method of spectrophotometry.

[4] = intraperitoneal injection, Table 5, read-out: LD50 (mg/kg) by Kerber
[5] = intraperitoneal injection, Table 5

Compound	LD50 (in vivo; [4])	IC50 [1]	Motor activity increment (% to control) (mice [2])	Increase of duration of arecoline induced hyperkynesis (% to control) (mice [3])	change in vivo at 0.1 mg/kg (rats)	Performance of normal rats in passive avoidance test (rats)	LD50 (mg/kg) by Kerber (in vivo; [5])	Increase of the number of correct trails (% to control). Passive avoidance test (rats) (rats)	LD50 (in vivo; LD50 (mg/kg) by Kerber)	FFA/TG in adipocytes (rat adipocytes)	PL/CL in adipocytes (rat adipocytes)	PL/TG in adipocytes (rat adipocytes)
CC1(C)CC(=O)c2c(nc3ccc(Br)cc3c2N)C1 [IVd]	> 500 mg/kg	5e-05 M	15 % to control	20 % to control	0%	–	–	–	–	–	–	–
Cc1ccc(C)c2c(N)c3c(nc12)CC(C)(C)CC3=O [IVf]	40 ± 1.2 mg/kg	1.3e-05 M	0 % to control	0 % to control	0%	statistically significantly improved performance of normal rats	–	–	–	–	–	–
Cc1cc(C)c2nc3c(c(N)c2c1)C(=O)CC(C)(C)C3 [IVh]	> 500 mg/kg	3e-05 M	0 % to control	20 % to control	0%	–	–	–	–	–	–	–
Cc1ccc2nc3c(c(N)c2c1)C(=O)CC(C)(C)C3 [IVj]	63.6 ± 8.7 mg/kg	3e-05 M	0 % to control	30 % to control	0%	–	–	–	–	–	–	–
Cc1cccc2c(N)c3c(nc12)CC(C)(C)CC3=O [IVl]	617 ± 23.7 mg/kg	6.3e-07 M	57 % to control	0 % to control	0%	–	–	–	–	–	–	–
CCCCNc1c2c(nc3ccccc13)CC(C)(C)C=C2 [VIIc]	33.3 ± 4.4 mg/kg	6e-07 M	20 % to control	15 % to control	25%	–	–	–	–	–	–	–
CC1(C)C=Cc2c(nc3ccccc3c2NCc2ccccc2)C1 [VIIf]	–	–	0 % to control	0 % to control	–	–	125.0 ± 15.5 mg/kg	0 % to control	–	–	–	–
CC1(C)C=Cc2c(nc3ccccc3c2NCc2ccccc2)C1 [VIIg]	–	–	23 % to control	0 % to control	–	–	200.0 ± 21.9 mg/kg	0 % to control	–	–	–	–
CC1(C)C=Cc2c(nc3ccccc3c2NCc2ccccc2)C1 [VIIh]	–	–	13 % to control	28 % to control	–	–	116.7 ± 10.9 mg/kg	20 % to control	–	–	–	–
CC1(C)C=Cc2c(nc3ccccc3c2NCc2ccccc2)C1 [VIIm]	–	–	15 % to control	15 % to control	–	–	112.5 ± 10.9 mg/kg	25 % to control	–	–	–	–
CC1(C)C=Cc2c(nc3ccccc3c2NCc2ccccc2)C1 [VIIn]	–	–	11 % to control	46 % to control	–	–	125.0 ± 10.9 mg/kg	40 % to control	–	–	–	–
CC1(C)C=Cc2c(nc3ccccc3c2NCc2ccccc2)C1 [VIIo]	–	–	16 % to control	0 % to control	–	statistically significantly improved performance of normal rats	62.5 ± 7.7 mg/kg	40 % to control	–	–	–	–
CC1(C)C=Cc2c(nc3ccccc3c2NCc2ccccc2)C1 [VIIp]	–	–	33 % to control	21 % to control	–	statistically significantly improved performance of normal rats	–	45 % to control	75 ± 3.8 mg/kg	–	–	–
CC1(C)C=Cc2c(nc3ccccc3c2NCc2ccccc2)C1 [VIIq]	–	–	20 % to control	30 % to control	–	statistically significantly improved performance of normal rats	73.3 ± 4.4 mg/kg	45 % to control	–	–	–	–
CC1(C)C=Cc2c(nc3ccccc3c2NCc2ccccc2)C1 [VIIr]	–	–	0 % to control	0 % to control	–	statistically significantly improved performance of normal rats	69.5 ± 5.6 mg/kg	45 % to control	–	–	–	–
CC1(C)C=Cc2c(nc3ccccc3c2NCc2ccccc2)C1 [VIIu]	–	–	15 % to control	12 % to control	–	–	83.8 ± 5.6 mg/kg	0 % to control	–	–	–	–
CC1(C)Cc2nc3ccccc3c(NCc3ccccc3)c2C(O)C1 (stereo not shown) [VIe, 9-benzylamino-3,3-dimethyl-1,2,3,4-tetrahydroacridine-1-ol]	50 ± 8.6 mg/kg	1.3e-06 M	64 % to control	15 % to control	0%	–	–	–	–	–	–	–
CC1(C)Cc2nc3ccccc3c(NCc3ccc(Cl)cc3)c2C(O)C1 (stereo not shown) [VIg]	80 ± 2.7 mg/kg	3e-06 M	40 % to control	36 % to control	0%	–	–	–	–	–	–	–
CNc1c2c(nc3ccccc13)CC(C)(C)CC2=O [Vh]	65.8 ± 4.8 mg/kg	4e-07 M	40 % to control	20 % to control	0%	–	–	–	–	–	–	–
CCCCNc1c2c(nc3ccccc13)CC(C)(C)CC2=O [Vs]	–	–	0 % to control	0 % to control	–	–	165.8 ± 14.8 mg/kg	15 % to control	–	–	–	–
CCCCNc1c2c(nc3ccccc13)CC(C)(C)CC2=O [Vt]	–	–	0 % to control	0 % to control	–	–	210.0 ± 9.8 mg/kg	0 % to control	–	–	–	–
CCCCNc1c2c(nc3ccccc13)CC(C)(C)CC2=O [Vu]	–	–	20 % to control	0 % to control	–	statistically significantly improved performance of normal rats	210.0 ± 5.8 mg/kg	30 % to control	–	–	–	–
CCCCNc1c2c(nc3ccccc13)CC(C)(C)CC2=O [Vv]	–	–	26 % to control	15 % to control	–	–	433.3 ± 7.8 mg/kg	25 % to control	–	–	–	–
CCCCNc1c2c(nc3ccccc13)CC(C)(C)CC2=O [Vw]	–	–	10 % to control	10 % to control	–	–	125.0 ± 11.8 mg/kg	10 % to control	–	–	–	–
CCCCNc1c2c(nc3ccccc13)CC(C)(C)CC2=O [Vx]	–	–	–	–	–	–	121.7 ± 15.5 mg/kg	25 % to control	–	–	–	–
CCCCNc1c2c(nc3ccccc13)CC(C)(C)CC2=O [Vy]	–	–	0 % to control	0 % to control	–	–	210.0 ± 14.8 mg/kg	0 % to control	–	–	–	–
CCCCNc1c2c(nc3ccccc13)CC(C)(C)CC2=O [Vz]	–	–	0 % to control	0 % to control	–	–	200.0 ± 21.9 mg/kg	20 % to control	–	–	–	–
CC(C)(Sc1cc(C(C)(C)C)c(O)c(C(C)(C)C)c1)Sc1cc(C(C)(C)C)c(O)c(C(C)(C)C)c1 [probucol, reference compound]	–	–	–	–	–	–	–	–	–	1.10	0.84	0.69
